The results in this text go back to ChEMBL document CHEMBL3507680, “University of Dundee, Gates Library screen for HepG2 cell viability”.

The nature of the series: Human HepG2 cell viability assay in 384 well format. The series is classed as toxicity, cell-based. The arrangement: dose 125 nL, time 70.5 hour; concentration not given beside the values. The settings on record: HepG2 cells, read-out: Inhibition.
With `Cc1nc(C)n(CC2CCCN2Cc2nc(-c3ccoc3)no2)n1` (configuration not stated), the cytotoxicity at 70.5 h was -11.7%.

In the case of `COc1ccccc1COCC(O)CN1CC(n2cccn2)C1` (configuration not stated), the cytotoxicity at 70.5 h is -10.8%.

On to `CC(C)c1nnc2n1CCN(Cc1ncc(-c3ccccc3)o1)C2`, for which the cytotoxicity at 70.5 h was -10.5%.

`Fc1ccc(-c2cnc(CN3CCn4c(nnc4C4CC4)C3)o2)cc1`: the cytotoxicity at 70.5 h is -9.29%.

Consider `N#CC1(C(=O)N2CCCN(c3nccs3)CC2)CCCC1`, for which the cytotoxicity at 70.5 h was -11%.

Turning to `Cc1cc2n(n1)CC(CNCc1ccc(-n3ccnc3C)nc1)CN2` (configuration not stated), the cytotoxicity at 70.5 h is -20.7%.

Regarding `Cc1noc(C)c1CCC(=O)N1CCCN(C)CC1`, the cytotoxicity at 70.5 h was -3.68%.

With `CC(C(=O)NCc1ccnc(N2CCN(C)CC2)c1)S(C)(=O)=O` (configuration not stated), the cytotoxicity at 70.5 h was 22.3%.

Take `CN(Cc1ccsc1)C(=O)c1ccc2c(c1)NC(=O)CO2`: the cytotoxicity at 70.5 h is -7.5%.

Regarding `CC(C(=O)NCc1ccnc(N2CCCC2)c1)n1cccn1` (configuration not stated), the cytotoxicity at 70.5 h was -10.3%.

With `CC(NC(=O)CCc1ccsc1)c1ccc2c(c1)NC(=O)CO2` (configuration not stated), the cytotoxicity at 70.5 h is -6.31%.

In the case of `Cc1noc(C)c1CCC(=O)N1CCN(Cc2cscn2)CC1`, the cytotoxicity at 70.5 h is -2.32%.

For the compound `Cc1noc(C)c1CC(=O)N1CCN(Cc2cscn2)CC1`, the cytotoxicity at 70.5 h was -1.94%.

With `Cc1csc(N2CCN(C(=O)C3(C#N)CCCC3)CC2)n1`, the cytotoxicity at 70.5 h is -5.35%.

Consider `Cc1cc2n(n1)CC(CNCc1ccc(N3CCOCC3)nc1)CN2` (configuration not stated), for which the cytotoxicity at 70.5 h was -9.07%.

With `Cc1ccc(CNCC2CNc3cc(C)nn3C2)cn1` (configuration not stated), the cytotoxicity at 70.5 h is 15.9%.

`N#CC1(C(=O)N2CCCN(c3nccs3)CC2)CCCCC1`: the cytotoxicity at 70.5 h is -4.97%.

For the compound `CC(C(=O)NCc1ccnc(N2CCOCC2)c1)n1cccn1` (configuration not stated), the cytotoxicity at 70.5 h was -10.1%.

On to `CC(NC(=O)c1ccsc1)c1ccc2c(c1)NC(=O)CO2` (configuration not stated), for which the cytotoxicity at 70.5 h was -3.38%.

With `Cc1noc(C)c1CCC(=O)N1CCCN(CC(N)=O)CC1`, the cytotoxicity at 70.5 h was -16.1%.

On to `COCCOc1ccc(CNCC2CNc3cc(C)nn3C2)cn1` (configuration not stated), for which the cytotoxicity at 70.5 h was -4.87%.

For the compound `CCOc1ccccc1C(CC(=O)Nc1ncc(C)s1)NC(C)=O` (configuration not stated), the cytotoxicity at 70.5 h came to 14.6%.

As for `CCOc1ccccc1C(CC(=O)Nc1ccncc1)NC(C)=O` (configuration not stated), the cytotoxicity at 70.5 h was -7.74%.

With `COC(=O)c1cc(C(=O)N2CCCCC2C)n(-c2ccccc2)n1` (configuration not stated), the cytotoxicity at 70.5 h turned out to be 19.1%.

For `Cc1cc(C)n(CC2CCCCN2C(=O)CCc2ccncc2)n1` (configuration not stated), the cytotoxicity at 70.5 h is -0.893%.

`Cc1cnn(CC2CN(Cc3nc(-c4ccsc4)no3)CCO2)c1` (configuration not stated): the cytotoxicity at 70.5 h was -14.2%.

For the compound `Cc1cnn(CCNCc2nnc(Cc3ccccc3)o2)c1`, the cytotoxicity at 70.5 h is -1.13%.

`Fc1ccccc1-c1nc(CNCCn2cccn2)cs1`: the cytotoxicity at 70.5 h was -3.88%.

For the compound `Cc1ccc(-c2nc(CNC(C)Cn3cccn3)cs2)o1` (configuration not stated), the cytotoxicity at 70.5 h is -3.26%.

With `Cc1cc(C)c(CNC(=O)c2ccc3c(c2)CCC3)c(=O)[nH]1`, the cytotoxicity at 70.5 h stood at 4.13%.

In the case of `CC(C)Oc1ncccc1CNC(=O)N1CCSCC1`, the cytotoxicity at 70.5 h was -2.87%.

Consider `O=C(Cc1ccc2c(c1)CCO2)N1CCN(c2nccs2)CC1`, for which the cytotoxicity at 70.5 h is -2.11%.

Consider `Cn1ccnc1CN1CCN(CCOc2cccc(C#N)c2)CC1`, for which the cytotoxicity at 70.5 h is -0.0786%.

In the case of `CC1CN(CCOc2cccc(C#N)c2)CCN1Cc1nccn1C` (configuration not stated), the cytotoxicity at 70.5 h was -3.4%.

For the compound `Cc1nc(C2CCCN(C(=O)Cn3ccccc3=O)C2)sc1C` (configuration not stated), the cytotoxicity at 70.5 h is -2.49%.

In the case of `Cc1csc(C2CCCN(C(=O)Cn3ccccc3=O)C2)n1` (configuration not stated), the cytotoxicity at 70.5 h is -3.71%.

Take `Cc1nc(C2CCCN2C(=O)c2csc3c2CCCC3)no1` (configuration not stated): the cytotoxicity at 70.5 h is -1.72%.

As for `Cc1nc(C2CCCN2CCC(=O)N2CCc3ccccc32)no1` (configuration not stated), the cytotoxicity at 70.5 h came to 4.14%.

For the compound `Cc1cc(C2CCCN2C(=O)c2cc3c(s2)CCC3)no1` (configuration not stated), the cytotoxicity at 70.5 h is -0.925%.

Turning to `CCc1nc(CN2CCCC(NCc3nc4ccccc4o3)C2)no1` (configuration not stated), the cytotoxicity at 70.5 h is -1.56%.

With `Cn1cc(C2CCCN2C(=O)CCc2cnn(-c3ccccc3)c2)cn1` (configuration not stated), the cytotoxicity at 70.5 h is -3.27%.

In the case of `CC(C)c1noc(CCCC(=O)N2CCN(Cc3cccnc3)CC2)n1`, the cytotoxicity at 70.5 h was -13%.

Take `CNS(=O)(=O)c1ccc(C(=O)NCCNc2ncccn2)cc1`: the cytotoxicity at 70.5 h was -12.3%.

Regarding `O=C(Cc1ccc2c(c1)CCCC2)NCCc1ccccn1`, the cytotoxicity at 70.5 h is -5.18%.

For the compound `COc1cc(CCC(=O)NC2CC2)ccc1OCC(F)(F)F`, the cytotoxicity at 70.5 h is -15.3%.

Consider `Cc1cccc(CN(C)Cc2nc3c(cnn3C)c(=O)[nH]2)c1`, for which the cytotoxicity at 70.5 h is -14.2%.

On to `Cc1ccc(CNC(=O)CN2C=Nc3ccccc3S2(=O)=O)s1`, for which the cytotoxicity at 70.5 h is -11.3%.

Turning to `CC(C)CNC(=O)CN1C=Nc2ccccc2S1(=O)=O`, the cytotoxicity at 70.5 h was found to be 20.2%.

For the compound `CCc1c(C(=O)N2CCCN(C(C)=O)CC2)cnn1C(C)(C)C`, the cytotoxicity at 70.5 h was -0.109%.

With `Cc1cccc(-n2ncc(C(=O)N3CCn4c(C)nnc4C3)c2C)c1`, the cytotoxicity at 70.5 h was -10.4%.

For `CCOc1ccnc(N2CCN(C(=O)c3cccc(C#N)c3)CC2)n1`, the cytotoxicity at 70.5 h is -6.91%.

For the compound `CC(C)c1nc(C(=O)NCCn2ccnc2)nn1-c1cccc(F)c1`, the cytotoxicity at 70.5 h was -14.8%.

Regarding `Cn1cnc2c1CCN(Cc1noc(-c3ccccc3)n1)C2`, the cytotoxicity at 70.5 h was -6.44%.

On to `Cc1nn(C)c(C)c1C1CCCN1C(=O)CCNc1ncccn1` (configuration not stated), for which the cytotoxicity at 70.5 h was -4.27%.

As to `CC(=O)NCc1ccc(C(=O)N2CCCC2c2cnn(C)c2)o1` (configuration not stated), the cytotoxicity at 70.5 h was -13.1%.

`CCc1ncncc1C(=O)N1CCN(Cc2ccco2)CC1`: the cytotoxicity at 70.5 h is 10.8%.

In the case of `Cc1ccc(CC(=O)N2CSCC2C(=O)N(C)Cc2ccco2)o1` (configuration not stated), the cytotoxicity at 70.5 h was -12.2%.

As to `CN(Cc1ccco1)C(=O)C1CSCN1C(=O)c1cccnc1` (configuration not stated), the cytotoxicity at 70.5 h is -15.1%.

On to `Cc1cnn(CCNCCCOc2ccccc2)c1`, for which the cytotoxicity at 70.5 h is -7.1%.

`COc1cc(CNC2CCc3nc(C)nn3C2)cc2c1OCCO2` (configuration not stated): the cytotoxicity at 70.5 h was -9%.

As for `Cc1cc(CN2CCN(CCOc3cccc(C#N)c3)CC2)no1`, the cytotoxicity at 70.5 h was found to be 5.03%.

With `CCc1nc(C)c(C(=O)NCCNc2cnccn2)s1`, the cytotoxicity at 70.5 h was found to be 3.09%.

On to `Cc1nn(C)c(N2CCOCC2)c1CNC(c1cccs1)C(C)C` (configuration not stated), for which the cytotoxicity at 70.5 h is 6.88%.

On to `CC(NC(=O)CSCC#N)c1ccccc1` (configuration not stated), for which the cytotoxicity at 70.5 h was determined as 6.84%.

Regarding `CCc1nc(CN2CCOC(Cn3nc(C)nc3C)C2)no1` (configuration not stated), the cytotoxicity at 70.5 h came to 3.11%.

With `O=C(NCC1CCOC1)N1CCN(Cc2ccc3c(c2)CCO3)CC1` (configuration not stated), the cytotoxicity at 70.5 h is -4.97%.

`O=C(CCNC(=O)C1CCCC1)NCc1ccccc1Cn1cncn1`: the cytotoxicity at 70.5 h is -7.76%.

As for `CC(NC(=O)c1ccc2c(c1)OCC(=O)N2)c1ccccc1F` (configuration not stated), the cytotoxicity at 70.5 h amounted to 0.146%.

For the compound `Cc1nc(COc2cccc(C#N)c2)no1`, the cytotoxicity at 70.5 h was found to be 2.53%.

Consider `CN(Cc1ccsc1)C(=O)Nc1cccnc1N1CCCC1`, for which the cytotoxicity at 70.5 h was 23%.

Turning to `CCc1nc(C)c(C(=O)NCCNc2ncccn2)s1`, the cytotoxicity at 70.5 h was -6.37%.

For the compound `CC(C)Oc1cccc(CNC(=O)NC(C)(C(=O)O)c2ccco2)c1` (configuration not stated), the cytotoxicity at 70.5 h was -0.448%.

In the case of `Cc1ccc(C)c(CNC(=O)NC(C)(C(=O)O)c2ccco2)c1` (configuration not stated), the cytotoxicity at 70.5 h amounted to 2.89%.

Regarding `Cc1nccn1C1CCCN(C(=O)c2ccc(N3CCCC3)nn2)C1` (configuration not stated), the cytotoxicity at 70.5 h is -4.33%.

Turning to `CN(Cc1cnn(-c2ccccc2)n1)CC1CCCN1c1cccnn1` (configuration not stated), the cytotoxicity at 70.5 h turned out to be 4.15%.

`CC(=O)Nc1nc(C(=O)N2CCCC(n3nc(C)cc3C)C2)cs1` (configuration not stated): the cytotoxicity at 70.5 h came out at 31.5%.

For `Cc1nc(CN2CCCC2c2c(C)nn(C)c2Cl)no1` (configuration not stated), the cytotoxicity at 70.5 h is -1.31%.

`CC(C)c1n[nH]c(C2CN(C(=O)C3=COCC3)CCO2)n1` (configuration not stated): the cytotoxicity at 70.5 h was -3.87%.

Regarding `CC(=O)Nc1nc(C(=O)N2CCCC(c3cc(C)[nH]n3)C2)cs1` (configuration not stated), the cytotoxicity at 70.5 h was -0.899%.

For the compound `Cc1noc(NC(=O)c2ccc(Br)s2)n1`, the cytotoxicity at 70.5 h was found to be 24.3%.

For `O=C(C1COCCO1)N1CCN(Cc2ccc3c(c2)CCO3)CC1` (configuration not stated), the cytotoxicity at 70.5 h amounted to 1.06%.

Turning to `Cn1ccnc1CN1CCN(CCOc2ccccc2C#N)CC1`, the cytotoxicity at 70.5 h is 23.6%.

`Cc1cnc2c(S(=O)(=O)NCC3CCS(=O)(=O)C3)cccc2c1` (configuration not stated): the cytotoxicity at 70.5 h was 51.3%.

As to `O=C(NCCc1ccc(Cl)s1)NCc1nnc2n1CCC2`, the cytotoxicity at 70.5 h was 8.18%.

On to `O=C(NCCN1CCc2ccccc2C1)c1scnc1Cl`, for which the cytotoxicity at 70.5 h is -1.52%.

For `CN(CCCOc1ccc(F)cc1)Cc1nc2c(cnn2C)c(=O)[nH]1`, the cytotoxicity at 70.5 h came to 4.27%.

As to `COCCCN(C)Cc1nc2c(cnn2C)c(=O)[nH]1`, the cytotoxicity at 70.5 h came to 42.4%.

Consider `COc1c(CNC2CCN(c3ncccn3)CC2)c(C(C)C)nn1C`, for which the cytotoxicity at 70.5 h stood at 2.8%.

With `COc1c(CNC2CCN(C(=O)C3CC3)CC2)c(C(C)C)nn1C`, the cytotoxicity at 70.5 h was 0.393%.

Regarding `CCN(CC1CCOC1)C(=O)c1ccccc1NS(=O)(=O)CC` (configuration not stated), the cytotoxicity at 70.5 h is -3.45%.

With `CC(=O)N1CCCN(C(=O)c2cnc3n[nH]c(C)c3c2)CC1`, the cytotoxicity at 70.5 h was 11.1%.

Consider `COC(=O)c1ccc(N2CCN(CCC#N)C(C)C2)cc1` (configuration not stated), for which the cytotoxicity at 70.5 h is 11.4%.

Consider `COc1c(CNC2CCN(C(C)(C)C)CC2)c(C(C)C)nn1C`, for which the cytotoxicity at 70.5 h came out at 3.99%.

On to `Cc1ncc2c(n1)CN(CC(=O)Nc1ccncc1)CC2`, for which the cytotoxicity at 70.5 h stood at 1.41%.

Consider `Cn1cc(CN2CCCN(C(=O)c3ccc4c(c3)COC4)CC2)cn1`, for which the cytotoxicity at 70.5 h was -4.36%.

Regarding `Cc1nccn1C1CCCN(C(=O)c2ccc(N(C)C)nc2)C1` (configuration not stated), the cytotoxicity at 70.5 h was -7.86%.

On to `O=C(O)c1cc(S(=O)(=O)Nc2cc(F)ccc2F)cc2c1OCCO2`, for which the cytotoxicity at 70.5 h is -3.33%.

Take `CCc1ncc2c(n1)CN(Cc1nc(-c3ccccn3)no1)CC2`: the cytotoxicity at 70.5 h was determined as 33.7%.

For `CC(C)c1noc(C(C)N2CCN(Cc3ccsc3)CC2)n1` (configuration not stated), the cytotoxicity at 70.5 h was -5.78%.

As for `CCN(CC1CCOC1)C(=O)c1cccnc1N1CCOCC1` (configuration not stated), the cytotoxicity at 70.5 h was found to be 0.841%.

With `CC(=O)N1CCCN(C(=O)NCc2ccccn2)CC1`, the cytotoxicity at 70.5 h worked out at 3.62%.

In the case of `CC(C)c1nn(C)c(Cl)c1CNCc1ccc2c(c1)OCCO2`, the cytotoxicity at 70.5 h was determined as 3.82%.
